Experiment [1] concerns the target KHK-C expressed in NRK-52E cells (Homo sapiens (Human), UniProt P50053). The experiment can be described thus: KHK-C Cell-based Assay (EC50), NRK CTG, fructose-mediated ATP-depletion.
The target of experiment [2] is human KHK-C (Homo sapiens (Human), UniProt P50053). The experiment can be described thus: KHK Biochemical Assay (IC50), ADP-Glo, KHK-C. The note with it: average of at least two separate assays. The gist of the method:
(§1)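 His-tagged enzyme expressed in BL21 (DE3), Ni-NTA purified. Compounds, serially diluted 1:3 in DMSO, pre-incubated 30 min with enzyme in 50 mM Hepes pH 7.4, 140 mM KCl, 5 mM MgCl2, 0.01% Triton-X, then ATP and fructose added; 4 h at room temperature. ADP formation read by ADP-Glo luminescence.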

The test system of experiment [3] is HepG2 cells. The experiment can be described thus: F1P Cell-Based Assay (EC50), 13C6-fructose-1-phosphate in HepG2 cells (cell culture medium or 50% human plasma).
In experiment [4] the target is human KHK-A (Homo sapiens (Human), UniProt P50053). The experiment can be described thus: KHK Biochemical Assay (IC50), ADP-Glo, KHK-A. The note with it: average of at least two separate assays. The gist of the method:
as §1
A general note: In ADP-Glo the light output rises with the ADP produced.

[5] abbreviates: HepG2 cells, 50% human plasma, read-out: F1P 50% HP EC50.
Setting [6] is: read-out: F1P 10% FBS EC50, HepG2 cells, cell culture medium (10% FBS).
Where [7] appears, read: Homo sapiens, HepG2, HepG2 cells, 50% human plasma, read-out: F1P 50% HP EC50.
Setting [8] is: Homo sapiens, HepG2, read-out: F1P 10% FBS EC50, HepG2 cells, cell culture medium (10% FBS).

Molecules are shown by their SMILES. Where two headings read alike, the source gives them in different places.

Sequence of human KHK-C (P50053 whole entry): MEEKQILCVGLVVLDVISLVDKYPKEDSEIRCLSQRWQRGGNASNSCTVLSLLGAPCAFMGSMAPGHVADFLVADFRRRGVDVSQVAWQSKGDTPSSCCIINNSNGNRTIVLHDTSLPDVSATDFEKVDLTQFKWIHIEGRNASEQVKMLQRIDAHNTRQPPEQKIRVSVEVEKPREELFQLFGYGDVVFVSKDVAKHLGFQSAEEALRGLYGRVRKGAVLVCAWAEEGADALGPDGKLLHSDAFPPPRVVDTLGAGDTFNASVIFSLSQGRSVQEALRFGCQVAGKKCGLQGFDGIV
Sequence of KHK-C expressed in NRK-52E cells (P50053 whole entry): as above
Sequence of human KHK-A (P50053 other isoform, or with tags, fused parts or gaps): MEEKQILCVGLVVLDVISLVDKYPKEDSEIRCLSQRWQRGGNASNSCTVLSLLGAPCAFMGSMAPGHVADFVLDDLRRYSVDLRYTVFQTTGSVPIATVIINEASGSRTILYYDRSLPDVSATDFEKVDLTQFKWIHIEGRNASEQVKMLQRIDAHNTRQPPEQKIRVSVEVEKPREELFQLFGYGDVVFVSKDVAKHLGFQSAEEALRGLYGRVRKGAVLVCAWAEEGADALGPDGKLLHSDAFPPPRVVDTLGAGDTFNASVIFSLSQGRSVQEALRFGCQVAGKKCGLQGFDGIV

As usually defined, the EC50 is the concentration needed to bring the measured effect to its halfway point. Take `C[C@H]1[C@H](CO)CN1c1nc2c(c(-c3ccc(C(N)=O)cc3)n1)CCC2` (racemic) [Example 267, (rac)-4-(2-((2S*,3R*)-3-(hydroxymethyl)-2-methylazetidin-1-yl)-6,7-dihydro-5H-cyclopenta[d]pyrimidin-4-yl)benzamide]: the EC50 in experiment [1] is > 5000 nM.
By IC50 is commonly meant the concentration that inhibits the measured activity by half. A high value points to weaker potency in that assay. As to `COc1ccc(-c2nc(N3C[C@@H](O)[C@@H]3C)nc3c2CCC3(F)F)cc1[S@@](=N)(=O)C1CC1` (single isomer, unassigned) [Example 539], the IC50 in experiment [2] was 1 nM; in experiment [4], 0.4 nM. Besides, the EC50 in experiment [3] (setting [5]) was 8.9 nM; in experiment [3] (setting [6]), 2 nM.
Regarding `C[C@H]1[C@H](O)CN1c1nc(-c2ccc3c(c2)OCC[C@@H]3NS(C)(=O)=O)c2c(n1)C(F)(F)CC2` (single isomer, unassigned) [Example 787], the IC50 stood at 1.1 nM in experiment [2] and 7 nM in experiment [4]. Further, the EC50 in experiment [3] (setting [7]) came to 27.5 nM; in experiment [3] (setting [8]), 14.9 nM.
Regarding `C[C@H]1[C@H](F)CN1c1nc(-c2ccc([C@H](N)CS(C)(=O)=O)cc2)c2c(n1)C(F)(F)CC2` (single isomer, unassigned) [Example 788], the concentration for half-maximal inhibition (IC50) worked out at 2.5 nM in experiment [2] and 6 nM in experiment [4]. Moreover, the results for the EC50 in experiment [3] (setting [5]) and in experiment [3] (setting [6]) were 76.5 nM and 18.6 nM, respectively.
`C[C@H]1[C@H](O)CN1c1nc(-c2cc(F)c3c(c2)OC[C@@H]3NS(C)(=O)=O)c2c(n1)C(F)(F)CC2` (single isomer, unassigned) [Example 813]: the results for the IC50 in experiment [2] (ADP-Glo) and in experiment [4] (ADP-Glo) were 2.5 nM and 34.7 nM, respectively. Also, the EC50 in experiment [3] (setting [7]) is 78.4 nM; in experiment [3] (setting [8]), 25.2 nM.
Take `C[C@H]1[C@@H](F)CN1c1nc(-c2ccc(C3(N)COC3)cc2)c2c(n1)C(F)(F)CC2` (stereo in doubt) [Example 469, 3-(4-(7,7-difluoro-2-((28,38)-3-fluoro-2-methylazetidin-1-yl)-6,7-dihydro-5H-cyclopenta[d]pyrimidin-4-yl)phenyl)oxetan-3-amine]: the IC50 in experiment [2] stood at 2.5 nM; in experiment [4] it was 6.7 nM. Further, the values for the EC50 in experiment [3] (setting [7]) and in experiment [3] (setting [8]) were 22.5 nM and 10.7 nM, respectively.
As for `C[C@H]1[C@H](F)CN1c1nc2c(c(-c3ccc4c(c3)C(=O)N(C)C4)n1)CCC2` [Example 203, 6-[2-[(2S,3R)-3-fluoro-2-methyl-azetidin-1-yl]-6,7-dihydro-5H-cyclopenta[d]pyrimidin-4-yl]-2-methyl-isoindolin-1-one], it took 59.5 nM to reach a half-maximal effect in experiment [1] (EC50).
In experiment [1], `C[C@H]1CCN1c1nc2c(c(-c3ccc4c(c3)C(=O)N(C)C4)n1)CCC2` [Example 206, 2-methyl-6-[2-[(2S)-2-methylazetidin-1-yl]-6,7-dihydro-5H-cyclopenta[d]pyrimidin-4-yl]isoindolin-1-one] returned an EC50 of 26.6 nM.
`C[C@H]1CCN1c1nc(-c2cccc(C(N)=O)c2)c2c(n1)C1CC1C2` (stereo partly drawn) [Example 272, 3-(2-((S)-2-methylazetidin-1-yl)-5,5a,6,6a-tetrahydrocyclopropa[4,5]cyclopenta[1,2-d]pyrimidin-4-yl)benzamide] gave an EC50 in experiment [1] of 635 nM.
Same read-out and setting: to `C[C@H]1CCN1c1nc2c(c(-c3ccc(C4(NS(C)(=O)=O)CC4)cc3)n1)CCC2` [Example 306, (S)—N-(1-(4-(2-(2-methylazetidin-1-yl)-6,7-dihydro-5H-cyclopenta[d]pyrimidin-4-yl)phenyl)cyclopropyl)methanesulfonamide] belongs 450 nM; to `C[C@H]1[C@H](F)CN1c1nc2c(c(-c3cccc(CN)c3)n1)CCC2` [Example 352, [3-[2-[(2S,3R)-3-fluoro-2-methyl-azetidin-1-yl]-6,7-dihydro-5H-cyclopenta[d]pyrimidin-4-yl]phenyl]methanamine], 201 nM.
Same read-out and setting: to `C[C@H]1CCN1c1nc2c(c(-c3ccc(CNS(C)(=O)=O)cc3)n1)CCC2` [Example 361, N-[[4-[2-[(2S)-2-methylazetidin-1-yl]-6,7-dihydro-5H-cyclopenta[d]pyrimidin-4-yl]phenyl]methyl]methanesulfonamide] belongs 65.7 nM; to `C[C@H]1CCN1c1nc2c(c(-c3nc4ccccc4[nH]3)n1)CCC2` [Example 389, 2-[2-[(2S)-2-methylazetidin-1-yl]-6,7-dihydro-5H-cyclopenta[d]pyrimidin-4-yl]-1H-benzimidazole], 217 nM; to `C[C@H]1CCN1c1nc(-c2ccc(C(N)=O)cc2)c2cn[nH]c2n1` [Example 401, (S)-4-(6-(2-methylazetidin-1-yl)-1H-pyrazolo[3,4-d]pyrimidin-4-yl)benzamide], > 5000 nM.
As to `C[C@H]1[C@H](O)CN1c1nc(-c2ccc3c(c2)CC[C@]32NC(=O)NC2=O)c2c(n1)C(F)(F)CC2` [Example 486, (S)-5′-(7,7-difluoro-2-((2S,3R)-3-hydroxy-2-methylazetidin-1-yl)-6,7-dihydro-5H-cyclopenta[d]pyrimidin-4-yl)-2′,3′-dihydrospiro[imidazolidine-4,1′-indene]-2,5-dione], the IC50 in experiment [2] worked out at 0.2 nM; in experiment [4], 1.7 nM. The EC50 in experiment [3] (setting [7]) is 8.3 nM; in experiment [3] (setting [8]), 6 nM.
In the same order, the values of `C[C@H]1[C@H](O)CN1c1nc(-c2cc(F)c3c(c2)CCC3NS(C)(=O)=O)c2c(n1)C(F)(F)CC2` (stereo partly drawn) [Example 525, N-(5-(7,7-difluoro-2-((2S,3R)-3-hydroxy-2-methylazetidin-1-yl)-6,7-dihydro-5H-cyclopenta[d]pyrimidin-4-yl)-7-fluoro-2,3-dihydro-1H-inden-1-yl)methanesulfonamide] are 1.8 nM, 29.8 nM, 86.6 nM and 32.5 nM.
In the same order, the values of `CS(=O)(=O)N[C@H]1COc2cc(-c3nc(N4CC[C@@H]4C(F)F)nc4c3CCC4(F)F)ccc21` [Example 545, N—((R)-6-(2-((R)-2-(difluoromethyl)azetidin-1-yl)-7,7-difluoro-6,7-dihydro-5H-cyclopenta[d]pyrimidin-4-yl)-2,3-dihydrobenzofuran-3-yl)methanesulfonamide] are 1 nM, 4 nM, 24.7 nM and 2.4 nM.
`C[C@H]1CCN1c1nc2c(c(-c3ccc4c(c3)CN(S(=O)(=O)CC#N)CC4)n1)CCC2` [Example 604, (S)-2-((7-(2-(2-methylazetidin-1-yl)-6,7-dihydro-5H-cyclopenta[d]pyrimidin-4-yl)-3,4-dihydroisoquinolin-2(1H)-yl)sulfonyl)acetonitrile] gave an EC50 in experiment [1] of 164 nM.
Still for that read-out and setting: with `C[C@H]1CCN1c1nc2c(c(-c3cccc(C4CCS(=O)(=O)N4)c3)n1)CCC2` (stereo partly drawn) [Example 606, 3-(3-(2-((S)-2-methylazetidin-1-yl)-6,7-dihydro-5H-cyclopenta[d]pyrimidin-4-yl)phenyl)isothiazolidine 1,1-dioxide] the figure was 37.5 nM; with `C[C@H]1[C@H](O)CN1c1nc(-c2ccc3c(c2)CNCC3)c2c(n1)C(F)(F)CC2` [Example 612, (2S,3R)-1-(7,7-difluoro-4-(1,2,3,4-tetrahydroisoquinolin-7-yl)-6,7-dihydro-5H-cyclopenta[d]pyrimidin-2-yl)-2-methylazetidin-3-ol], 32.5 nM.
For `CC(=O)NC1COc2cc(-c3nc(N4C[C@@H](O)[C@@H]4C)nc4c3CCC4(F)F)cc(F)c21` (some centres unmarked) [Example 809], the IC50 in experiment [2] (ADP-Glo) worked out at 24.8 nM. Also, the EC50 in experiment [3] (setting [7]) worked out at 179 nM; in experiment [3] (setting [8]) it was 110 nM.
For `C[C@H]1[C@H](O)CN1c1nc(-c2ccc3c(c2)CCC3(C)NS(C)(=O)=O)c2c(n1)C(F)(F)CC2` (stereo partly drawn) [Example 810, N-[5-[7,7-difluoro-2-[(2S,3R)-3-hydroxy-2-methyl-azetidin-1-yl]-5,6-dihydrocyclopenta[d]pyrimidin-4-yl]-1-methyl-indan-1-yl]methanesulfonamide] the same measures were 34.9 nM, > 500 nM and 206 nM.
`COC(=O)NC1COc2cc(-c3nc(N4C[C@@H](O)[C@@H]4C)nc4c3CCC4(F)F)cc(F)c21` (stereo partly drawn) [Example 811, methyl (6-(7,7-difluoro-2-((2S,3R)-3-hydroxy-2-methylazetidin-1-yl)-6,7-dihydro-5H-cyclopenta[d]pyrimidin-4-yl)-4-fluoro-2,3-dihydrobenzofuran-3-yl)carbamate] had a 50% inhibitory concentration (IC50) in experiment [2] (ADP-Glo) of 5.2 nM. For the same compound, the EC50 turned out to be 343 nM in experiment [3] (setting [7]) and 127 nM in experiment [3] (setting [8]).
In experiment [2] (ADP-Glo), `C[C@H]1[C@H](O)CN1c1nc(-c2cc(F)c3c(c2)OCC3NS(C)(=O)=O)c2c(n1)C(F)(F)CC2` (stereo partly drawn) [Example 817, N-(6-(7,7-difluoro-2-((2S,3R)-3-hydroxy-2-methylazetidin-1-yl)-6,7-dihydro-5H-cyclopenta[d]pyrimidin-4-yl)-4-fluoro-2,3-dihydrobenzofuran-3-yl)methanesulfonamide] showed an IC50 of 5.9 nM. Also, the EC50 stood at 67.1 nM in experiment [3] (setting [7]) and 39.7 nM in experiment [3] (setting [8]).
The compound `C[C@H]1CCN1c1nc(-c2ccc3c(c2)CCNC3C(F)F)c2c(n1)C(F)(F)CC2` (stereo partly drawn) [Example 836, 6-(7,7-difluoro-2-((S)-2-methylazetidin-1-yl)-6,7-dihydro-5H-cyclopenta[d]pyrimidin-4-yl)-1-(difluoromethyl)-1,2,3,4-tetrahydroisoquinoline] yielded an IC50 in experiment [2] (ADP-Glo) of 5.8 nM. In addition, the figures for the EC50 in experiment [3] (setting [7]) and in experiment [3] (setting [8]) were 158 nM and 16.9 nM, respectively.
